Assay results: publication PMC7136958, “Targeting the pregnane X receptor using microbial metabolite mimicry” (EMBO Molecular Medicine, 2020)
“And” between values parts separate entries of the source, which are not always exact repeats. Equal values may be shown once.

Columns and labels:
[1] = test system: TLR4, CYP3A4, MDR1 mRNA in Caco-2 cells; experiment: RT-qPCR of TLR4, CYP3A4, MDR1 mRNA in PXR-transfected Caco-2 cells; assay type: cell-based, human; conditions: 10 μM; for CYP3A4 mRNA expression / MDR1 mRNA expression (Fold Change) / TLR4 mRNA expression: 24 h; for CYP3A4 Mean Fold expression / MDR1 Mean Fold expression / hTLR4 Mean Fold expression: DMSO = 1
Procedure: RT–qPCR was performed using Thermo Fisher PowerUp SYBR Green Master Mix (# A25742) and Thermo Fisher qPCR 7900HT. Each sample was repeated in quadruplicate and normalized to internal control, GAPDH. The entire experiment was repeated at least two separate times. The primer sequences are noted in Table 2.

[2] = biological target: T1, PXR (Homo sapiens, UniProt O75469); experiment: Ligand efficiency metric (LEM) analysis; design: expressed in transfected cells; host or cells: LS180; conditions: NSEI-nBEI plane, from PXR reporter Emax
T1 sequence (O75469 1-434): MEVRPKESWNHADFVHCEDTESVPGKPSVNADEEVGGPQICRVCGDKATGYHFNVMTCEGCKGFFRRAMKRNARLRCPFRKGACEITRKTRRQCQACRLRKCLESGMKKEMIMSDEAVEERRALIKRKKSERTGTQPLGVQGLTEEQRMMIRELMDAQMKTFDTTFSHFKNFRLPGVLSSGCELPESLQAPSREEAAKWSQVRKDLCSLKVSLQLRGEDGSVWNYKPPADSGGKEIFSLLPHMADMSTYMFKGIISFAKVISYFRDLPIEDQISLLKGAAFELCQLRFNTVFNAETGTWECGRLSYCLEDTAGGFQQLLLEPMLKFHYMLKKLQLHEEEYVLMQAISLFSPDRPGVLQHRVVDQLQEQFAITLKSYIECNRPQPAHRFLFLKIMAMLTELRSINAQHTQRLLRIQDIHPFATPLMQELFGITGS
Source text: Ligand efficiency metric (LEM) analysis for FKK ligand efficiency. The ligand efficiency metrics (LEMs) of compounds FKK1 to 10 and FKK999 as a reference compound, have been analyzed by using a web tool named AtlasCBS which represents LEMs as variables for a Cartesian mapping of chemico-biological space (CBS). In particular, Cartesian planes combine three critical variables in drug discovery (affinity, size, and polarity) into easily interpretable ‘efficiency planes’ useful to guide a drug discovery process. In the Cartesian plane, each target:ligand pair appears as a point whose coordinates are given by pairs of values derived from the affinity of the ligand toward the target (Ki or equivalent) in relation to its size (MW or number of non-hydrogen atoms NHA), and its polarity (expressed as Polar Surface Area, PSA, or number of polar atoms, NPOL = count of N + O). The first one represents a size-related LEM and the second a polarity-related LEM. Consistently, compounds that correspond to marketed drugs typically occupy the upper right quadrant of the plots (‘Nort h-East’ direction, NE), where both the efficiency -pe r-size and efficiency -per-polarity are optimized 1,2.
Our results are represented in the efficiency plane NS EI-nBEI where:
NSEI = –log Ki/NPOL (N, O) = pKi/NPOL (N, O)
As a measure of activity of the above compounds, the reciprocal of the percentage efficacy values (1/Efficacy [%]) obtained in the PXR-dependent luciferase activity test (Emax values from Fig. 1) were used in lieu of the affinity constants (Ki in the above equations). FKK4 would appear as the most efficient compound since it is placed in the NE panel (GL, unpublished observations). However, this congener might suffer from metabolic liability with its N-protecting group possibly generating toxic aldehydes by oxidative cleavage in vivo. Unambiguously, the two most efficient compounds besides FKK4 are FKK5 and FKK6 which were therefore considered suitable lead compounds, as al so

[3] = test system: CYP1A1, CYP3A4, MDR1 mRNA in LS180 cells; experiment: qRT-PCR of CYP1A1, CYP3A4, MDR1 mRNA in LS180 cells with or without (mock) transfected PXR; conditions: for CYP1A1 mRNA induction: LS180 cells; for CYP1A1 mRNA fold to C / CYP3A4 mRNA fold to C / MDR-1 mRNA fold to C / MDR1 mRNA fold to C: normalised to GAPDH, fold to UT control
Procedure: Cells or primary human hepatocytes from four different donors (HEP200529, HEP220932, HEP200533, and HEP200538) were incubated for 24 h with test compounds; the vehicle was DMSO (0.1% v/v). Total RNA was isolated using TRI Reagent® (Molecular Research Center, Ohio, USA). cDNA was synthesized from 1,000 ng of total RNA using M‐MuLV Reverse Transcriptase (New England Biolabs, Ipswich, Massachusetts, USA) at 42°C for 60 min in the presence of random hexamers (New England Biolabs). Quantitative reverse transcriptase–polymerase chain reaction (qRT–PCR) was performed using LightCycler® 480 Probes Master on a LightCycler® 480 II apparatus (Roche Diagnostic Corporation).
The following protocol was used: An activation step at 95°C for 10 min was followed by 45 cycles of PCR (denaturation at 95°C for 10 s; annealing with elongation at 60°C for 30 s). The measurements were performed in triplicate. Gene expression was normalized per GAPDH as a housekeeping gene. […] Data are expressed as fold induction ± SD over the vehicle‐treated cells. The bar graph depicts one representative experiment of a series of experiments performed in three consecutive passages of cells. Differences were tested using one‐way ANOVA with Dunnett's post hoc test, and P < 0.05 was considered significant.

[4] = test system: S. typhimurium 14038; experiment: Salmonella invasion in iPSC-derived human intestinal organoids; assay type: cell-based, Salmonella typhimurium; conditions: for salmonella invasion vs cytokines alone: 2, 4, 6, 12 h; for basal salmonella invasion: 10 and 25 μM; for Salmonella CFU/ml: HIO, triplicate
Procedure: FKK compounds were tested for their ability to prevent Salmonella invasion in vitro in non‐inflamed and inflamed cell cultures. Overnight cultures of S. typhimurium 14038 were diluted to OD600 0.01 and injected into with HIOs or immersed over Caco‐2 monolayers for 1 h at 37°C. The invasive ability of Salmonella was assessed using the gentamicin protection assay (Gagnon et al, 2013). Bacterial adhesion scenarios to the Caco‐2 surface were set up as described above. Non‐adhered bacteria were removed by washing twice in PBS, followed by incubation with 1 ml gentamicin (150 μg/ml in DMEM) for 1 h at 37°C to kill the adhered extracellular bacteria. Dead bacteria were removed by washing twice in PBS, followed by incubation with 500 μl 0.1% Triton X‐100 for 15 min at 37°C to lyse the HIOs and Caco‐2, and release the intracellular (invaded) bacteria. Serial fold dilutions and plating were then employed to determine CFU/ml. We normalized to total protein using Bradford assay.

[5] = biological target: T2, PPARγ (Homo sapiens, UniProt P37231); experiment: PPARγ reporter assay in PAZ-PPARg cells; assay type: cell-based
T2 construct: endogenous in cells; host or cells: PAZ-PPARg
T2 sequence (P37231 whole entry): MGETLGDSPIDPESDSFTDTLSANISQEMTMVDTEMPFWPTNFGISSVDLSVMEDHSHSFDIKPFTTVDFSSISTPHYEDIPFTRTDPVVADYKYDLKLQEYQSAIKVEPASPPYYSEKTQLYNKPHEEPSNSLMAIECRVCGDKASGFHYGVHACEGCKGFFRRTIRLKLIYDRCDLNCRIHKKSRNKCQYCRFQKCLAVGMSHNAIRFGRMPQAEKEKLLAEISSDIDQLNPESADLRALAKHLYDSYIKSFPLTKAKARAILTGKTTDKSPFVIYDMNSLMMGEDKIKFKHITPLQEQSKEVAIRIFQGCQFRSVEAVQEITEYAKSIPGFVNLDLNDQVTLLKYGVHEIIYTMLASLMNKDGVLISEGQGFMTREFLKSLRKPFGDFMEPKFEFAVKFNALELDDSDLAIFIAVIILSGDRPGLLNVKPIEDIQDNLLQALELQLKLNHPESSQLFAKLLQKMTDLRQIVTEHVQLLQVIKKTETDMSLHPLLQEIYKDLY
Procedure: volume of 20 µl in 384-well black plates, with concentrations of tested compounds in the range from 1 […]
dark, and then fluorescent signals were measured at 495 nm and 520 nm, with the excitation filter 340 nm, on Infinite F200 microplate reader (Tecan Group Ltd, Switzerland). Finally, the TR-FRET ratio was calculated by dividing the emission signal of 520 nm by that at 495 nm. All experiments were done in tetraplicates and as two independent experiments. Final EC50 values were obtained by processing the data with GraphPad Prism 6 using standard curve interpolation (sigmoidal, 4PL, variable slope).
Tr a nscriptional activity of PPARγ was studied in stably transfected reporter cell line PAZ-PPARg 20. Cells were seeded in 96 -well plates, stabilized for 24 h, and then incubated with tested compound. Dimethyl sulfoxide (DMSO; 0.1% v/v) and 15 -deoxy-δ1 2 , 1 4-prostaglandin J2 […]
(Schoeller Instruments, Prague, Czech Republic). The data are expressed as fold induction ± SD of luciferase activity over the control cells. Differences were tested using one-way ANOVA wit h Dunnett’s post hoc test, p < 0.05, was considered significant (*).

[6] = compound 10µm, no cytokines, 4 hr
[7] = cytokines + compound 10µm, 12 hr

SMILES	CYP3A4 mRNA expression [1] [fold]	MDR1 mRNA expression (Fold Change) [1] [fold]	TLR4 mRNA expression [1] [fold]	CYP3A4 Mean Fold expression [1]	MDR1 Mean Fold expression [1]	hTLR4 Mean Fold expression [1]	LEM analysis prediction [2]	CYP1A1 mRNA induction [3]	CYP1A1 mRNA fold to C ([3]; PXR-transfected LS180 cells)	CYP3A4 mRNA fold to C ([3]; PXR-transfected LS180 cells)	MDR-1 mRNA fold to C ([3]; PXR-transfected LS180 cells)	CYP1A1 mRNA fold to C ([3]; mock-transfected LS180 cells)	CYP3A4 mRNA fold to C ([3]; mock-transfected LS180 cells)	MDR1 mRNA fold to C ([3]; mock-transfected LS180 cells)	salmonella invasion vs cytokines alone [4]	basal salmonella invasion [4]	Salmonella CFU/ml [4, 6]	Salmonella CFU/ml [4, 7]	PPARγ ligand agonist activity [5]	also measured
O=C(c1ccncc1)c1cc2ccccc2n1S(=O)(=O)c1ccccc1 [FKK5, (1-(phenylsulfonyl)-1H-indol-2-yl)(pyridin-4-yl)methanone]	3.7	5.12	0.39	3.7	5.12	0.39	best candidates for further studies	did not induce	1.86	3.69	4.10	8.19	0.94	3.80	significantly reduced	no significant effect	557 CFU/ml and 514 CFU/ml and 578 CFU/ml	459 CFU/ml and 469 CFU/ml and 548 CFU/ml	did not observe any significant ligand agonist activity	Salmonella CFU/ml ([4]; compound 10µm, no cytokines, 12 hr): 447 CFU/ml and 508 CFU/ml and 480 CFU/ml; Salmonella CFU/ml ([4]; cytokines + compound 25µm, 12 hr): 474 CFU/ml and 339 CFU/ml and 439 CFU/ml
C#CCC(O)(c1ccncc1)c1cc2ccccc2n1S(=O)(=O)c1ccccc1 (centres unmarked) [FKK6]	3.29	6.45	0.49	3.29	6.45	0.49	best candidates for further studies	did not induce	2.02	18.02	10.37	4.61	1.10	5.17	significantly reduced	no significant effect	370 CFU/ml and 296 CFU/ml and 591 CFU/ml	362 CFU/ml and 381 CFU/ml and 340 CFU/ml	did not observe any significant ligand agonist activity	CYP3A4 mRNA induction ([3]; PXR-transfected LS180 cells): induced; MDR1 mRNA induction ([3]; PXR-transfected LS180 cells): induced; Salmonella CFU/ml ([4]; compound 25µm, no cytokines, 6 hr): 277 CFU/ml and 280 CFU/ml and 238 CFU/ml; Salmonella CFU/ml ([4]; cytokines + compound 10µm, 2 hr): 234 CFU/ml and 133 CFU/ml and 134 CFU/ml; Salmonella CFU/ml ([4]; cytokines + compound 25µm, 2 hr): 193 CFU/ml and 132 CFU/ml and 164 CFU/ml; Salmonella CFU/ml ([4]; cytokines + compound 25µm, 4 hr): 200 CFU/ml and 140 CFU/ml and 164 CFU/ml; Salmonella CFU/ml ([4]; cytokines + compound 25µm, 6 hr): 189 CFU/ml and 151 CFU/ml and 140 CFU/ml
